Key:
[1] = biological target: T1, Aldurazyme (laronidase) IDUA activity in plasma (Homo sapiens, UniProt P35475); experiment: IDUA assay in plasma after i.v. Aldurazyme with or without compound; assay type: in vivo, C57BL/6 male mice; conditions: mice, compound 5, 10, 20 mg/kg i.v. + Aldurazyme 1.2 mg/kg i.v.
T1 construct: purchased Aldurazyme; host or cells: administered i.v. to C57BL/6 male mice
T1 sequence (P35475 26-653 limits assumed): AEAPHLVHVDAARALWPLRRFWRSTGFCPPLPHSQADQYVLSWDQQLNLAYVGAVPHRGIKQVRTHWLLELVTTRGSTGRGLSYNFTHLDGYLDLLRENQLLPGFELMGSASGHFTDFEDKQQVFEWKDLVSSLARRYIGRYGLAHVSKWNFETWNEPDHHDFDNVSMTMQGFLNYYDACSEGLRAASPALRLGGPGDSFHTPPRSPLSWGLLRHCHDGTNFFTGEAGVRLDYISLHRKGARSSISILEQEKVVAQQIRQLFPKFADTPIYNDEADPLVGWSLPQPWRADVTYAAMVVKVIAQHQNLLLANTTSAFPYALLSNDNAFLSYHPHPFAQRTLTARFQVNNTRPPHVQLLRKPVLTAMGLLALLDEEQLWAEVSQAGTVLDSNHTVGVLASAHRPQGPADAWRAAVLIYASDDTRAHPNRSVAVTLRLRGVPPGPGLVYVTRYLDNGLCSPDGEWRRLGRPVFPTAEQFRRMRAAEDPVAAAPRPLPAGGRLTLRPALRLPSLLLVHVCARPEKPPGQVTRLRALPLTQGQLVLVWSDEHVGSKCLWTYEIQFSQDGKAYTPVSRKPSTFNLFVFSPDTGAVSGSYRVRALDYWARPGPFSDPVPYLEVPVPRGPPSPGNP
Procedure: (§1) Evaluation of IDUA activity in mouse bone joint cartilage samples obtained from BIO-PCY-19-025 study, where C57BL/6 male mice were administered with 1.2 mg/kg Aldurazyme (i.v. bolus administration) in the presence and absence of Compound A.
(§2) Groups Details: • G1: Vehicle 2 +Aldurazyme (1.2 mg/kg,i.v.,) QD×1(n=6) [vehicle 2:NMP (5%) + Solutol HS-15 (5%) + Normal saline (45%) + PEG-400 (45%)]; • G2: Compound A (5 mg/kg, i.v.) + Aldurazyme (1.2 mg/kg, i.v.) QD x 1 (n=6); • G3: Compound A (10 mg/kg, i.v.) + Aldurazyme (1.2 mg/kg, i.v.) QD x 1 (n=6); • G4: Compound A (20 mg/kg, i.v.) + Aldurazyme (1.2 mg/kg, i.v.) QD x 1 (n=6); and • G5: Naïve Control (n=6).
Plasma samples from mice were collected at indicated time points. Plasma samples were diluted in formate buffer and total protein was estimated using Bradford reagent. 25 µl of tissue homogenate and plasma samples were added to 25 µl of 0.18 mM of 4 MUI substrate and incubated at 37° C. for 30 min. Reaction was terminated using 200 µl of stop solution (0.3 M Glycine and 0.2 M sodium carbonate, pH 10.4). Plate was read at excitation 355 nm and emission 460 nm. […]
(§3) IDUA activity was assessed from 4-MU standard curve. […] Final IDUA enzyme activity was expressed as nmols/mg of protein/hr. Data was analyzed using GraphPad prism software with one way ANOVA followed by Dunnett’s comparison test. […]

[2] = biological target: T2, Aldurazyme (laronidase) IDUA activity in bone marrow (Homo sapiens, UniProt P35475); experiment: IDUA assay in bone marrow after i.v. Aldurazyme with or without compound; assay type: in vivo, C57BL/6 male mice; conditions: mice, compound i.v. + Aldurazyme 1.2 mg/kg i.v.
T2 construct: purchased Aldurazyme; host or cells: administered i.v. to C57BL/6 male mice
T2 sequence (P35475 26-653 limits assumed): T1 sequence (P35475 26-653 limits assumed)
Procedure: as §1, §2
Bone marrow samples from mice were collected at indicated time points. After repeated freeze thaw cycles for protein extraction, bone marrow samples were diluted in formate buffer (0.4 M, pH 3.5). Total protein was estimated using Bradford reagent. 25 µl of tissue homogenate and plasma samples were added to 25 µl of 0.18 mM of 4 MUI substrate and incubated at 37° C. for 30 min. […] Plate was read at excitation 355 nm and emission 460 nm. […]
as §3

## CCN(CC(=O)Nc1c(Cl)cccc1Cl)Cc1nc2ccsc2c(=O)[nH]1 [Compound A]
[1]
  plasma levels / PK profile of Laronidase: increasing its plasma levels in a dose-dependent manner
[2]
  IDUA enzymatic activity in bone marrow: increases IDUA enzymatic activity in a panel of tissues
